Patent US8148493B2, “Method for inhibiting “melanoma inhibitory activity” MIA” (Antisense Pharma GmbH, priority 2002, dated 2012)

Assays:
melanoma cells = assay: Melanoma (tumor) cell attachment; type: cell-based
MIA = molecular target: T1, MIA (Homo sapiens, UniProt Q16674); assay: Boyden Chamber assay, melanoma cell invasion with and without MIA; type: cell-based
T1 sequence (Q16674 25-131): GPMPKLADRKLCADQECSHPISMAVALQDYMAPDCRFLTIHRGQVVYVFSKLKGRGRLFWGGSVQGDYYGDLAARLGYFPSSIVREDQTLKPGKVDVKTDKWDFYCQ
Description: Both in vitro and in vivo MIA expression levels strictly correlate with an highly invasive phenotype (Bosserhoff et al., 1996, J. Biol. Chem. 271, 490-495; Bosserhoff et al., 1999, J. of Pathology 187, 446-454). Further in vivo studies have shown the necessity of MIA for melanoma invasion and metastasis (Bosserhoff et al., 2001, Melanoma Res. 11, 417-421., Guba, et al., 2000, Br. J. Cancer 83, 1216-1222). We therefore aimed to design MIA-inhibitory peptides based on our experiments which identified fibronectin epitopes interacting with MIA (Stoll et al., 2001; EMBO J. 20: 340-349). Peptides derived from fibronectin which were shown previously to cross-react with MIA were tested in Boyden Chamber assays on their effect on melanoma cell invasion with and without MIA. […] In addition we tested several of the peptide sequences derived from phage display screenings and found peptide SEQ ID NO:16 to be a potential interesting candidate for therapeutic MIA-inhibition. […] We then tested the effect of peptides SEQ ID NO:16 and 22 on growth of metastasis in vivo using the B16/C57B16 model.

B16 melanoma cells = assay: In vivo experimental metastasis assay, B16/C57Bl6 model; details: C57Bl6 mice, B16 cells i.v., peptide 550 μg/mouse every day, 18 days; for size of the lung tumor nodules: control 119.9±9.95; for number of black lung nodules of melanoma: control 193±13
Description: To measure the effect of SEQ ID NO: 16 and SEQ ID NO:22 on the metastatic potential of B16 melanoma cells in vivo an experimental metastasis assay was used (Bosserhoff et al., 2001, Melanoma Res. 11, 417-421). Intravenous injections of monodispersed tumor cells (1×10^5 cells per animal) were performed into syngeneic C57BI6 mice (n=12 for every peptide as well as control). Peptides (550 μg/mouse) or PBS was injected every day. After 18 days the mice were sacrificed, the lungs removed, washed in PBS, fixed in formalin and the visible tumor nodules on the surface of the lungs were counted and the tumor areas measured.

| Sequence | effect on melanoma/tumor cell attachment (melanoma cells) | effect on MIA function (melanoma cell invasion) (MIA) | size of the lung tumor nodules (B16 melanoma cells) | number of black lung nodules of melanoma (B16 melanoma cells) |
| --- | --- | --- | --- | --- |
| NSLLVSWQPPRAR (from phage display screening) [SEQ ID NO:24, fibronectin-derived peptide] | inhibit also tumor cell attachment | block MIA function |  |  |
| RLTLLVLIMPAP (from phage display screening) [SEQ ID NO:16, do-decapeptide from phage display] | no effect | strongly inhibited | 78.1±5.03 | 198±19 |
| TSLLISWDAPAVT (from phage display screening) [SEQ ID NO:23, fibronectin-derived peptide] | inhibit also tumor cell attachment | block MIA function |  |  |
| ETTIVITWTPAPR (from phage display screening) [SEQ ID NO:22, fibronectin-derived peptide] |  | block MIA function | 87.15±5.32 | 249±26 |
